{"source": "paper PMC5557014", "about": "(Biochemical pharmacology, 2017)", "key": {"HIV-1 RT L100I": {"system": "HIV-1 RT L100I", "conditions": "Poly rA.dT [^3H]dTTP"}, "[1]": {"target": "cellular DNA polymerase β (Homo sapiens, UniProt P06746)", "assay": "Cellular DNA polymerase β assay", "format": "biochemical"}, "HIV-1 RT M184V + Y115F": {"system": "HIV-1 RT M184V + Y115F", "assay": "Mutant HIV-1 RT assay M184V + Y115F", "format": "biochemical", "conditions": "Poly rI.dC [^3H]dCTP"}, "HIV-1 RT K65R": {"system": "HIV-1 RT K65R", "assay": "Mutant HIV-1 RT assay K65R", "format": "biochemical"}, "HSV-1 DNA polymerase": {"target": "HSV-1 DNA polymerase (Human herpesvirus 1, UniProt P04293)", "sequence (P04293 whole entry)": "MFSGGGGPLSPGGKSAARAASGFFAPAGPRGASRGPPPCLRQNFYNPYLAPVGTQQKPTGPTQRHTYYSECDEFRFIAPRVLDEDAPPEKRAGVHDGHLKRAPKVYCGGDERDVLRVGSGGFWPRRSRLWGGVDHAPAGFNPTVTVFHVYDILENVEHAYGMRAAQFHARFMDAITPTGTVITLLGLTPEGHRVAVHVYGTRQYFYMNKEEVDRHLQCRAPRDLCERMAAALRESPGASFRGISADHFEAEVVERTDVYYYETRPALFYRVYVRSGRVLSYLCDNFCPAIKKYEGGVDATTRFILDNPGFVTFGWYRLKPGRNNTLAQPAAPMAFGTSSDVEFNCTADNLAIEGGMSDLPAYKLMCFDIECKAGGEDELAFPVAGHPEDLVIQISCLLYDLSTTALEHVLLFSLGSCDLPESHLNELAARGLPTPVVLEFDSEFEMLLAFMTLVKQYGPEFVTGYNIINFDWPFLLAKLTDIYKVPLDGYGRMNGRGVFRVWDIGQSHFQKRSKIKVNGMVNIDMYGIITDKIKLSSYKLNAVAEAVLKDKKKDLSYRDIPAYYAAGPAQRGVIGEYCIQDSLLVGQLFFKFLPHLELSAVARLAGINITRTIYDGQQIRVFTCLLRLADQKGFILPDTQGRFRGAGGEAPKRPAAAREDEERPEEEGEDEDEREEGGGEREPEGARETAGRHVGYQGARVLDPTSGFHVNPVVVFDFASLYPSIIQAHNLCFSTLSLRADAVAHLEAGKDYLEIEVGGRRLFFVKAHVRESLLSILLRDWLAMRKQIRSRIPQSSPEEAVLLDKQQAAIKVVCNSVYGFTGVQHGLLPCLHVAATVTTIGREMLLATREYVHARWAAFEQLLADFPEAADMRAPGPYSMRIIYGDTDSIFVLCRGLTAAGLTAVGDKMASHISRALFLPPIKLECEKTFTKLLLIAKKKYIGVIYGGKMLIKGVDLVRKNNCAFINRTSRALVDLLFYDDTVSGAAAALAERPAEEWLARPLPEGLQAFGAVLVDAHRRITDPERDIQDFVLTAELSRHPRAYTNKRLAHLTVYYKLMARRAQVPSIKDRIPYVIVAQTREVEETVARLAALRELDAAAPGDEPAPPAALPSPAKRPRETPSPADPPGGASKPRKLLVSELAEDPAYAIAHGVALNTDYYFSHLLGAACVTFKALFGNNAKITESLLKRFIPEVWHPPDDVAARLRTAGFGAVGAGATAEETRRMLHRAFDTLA", "assay": "HSV-1 DNA polymerase enzyme assay", "format": "biochemical", "conditions": "calf thymus DNA"}, "[2]": {"target": "T1, cellular DNA polymerase α (Homo sapiens, UniProt P09884)", "T1 sequence (P09884 1-1462)": "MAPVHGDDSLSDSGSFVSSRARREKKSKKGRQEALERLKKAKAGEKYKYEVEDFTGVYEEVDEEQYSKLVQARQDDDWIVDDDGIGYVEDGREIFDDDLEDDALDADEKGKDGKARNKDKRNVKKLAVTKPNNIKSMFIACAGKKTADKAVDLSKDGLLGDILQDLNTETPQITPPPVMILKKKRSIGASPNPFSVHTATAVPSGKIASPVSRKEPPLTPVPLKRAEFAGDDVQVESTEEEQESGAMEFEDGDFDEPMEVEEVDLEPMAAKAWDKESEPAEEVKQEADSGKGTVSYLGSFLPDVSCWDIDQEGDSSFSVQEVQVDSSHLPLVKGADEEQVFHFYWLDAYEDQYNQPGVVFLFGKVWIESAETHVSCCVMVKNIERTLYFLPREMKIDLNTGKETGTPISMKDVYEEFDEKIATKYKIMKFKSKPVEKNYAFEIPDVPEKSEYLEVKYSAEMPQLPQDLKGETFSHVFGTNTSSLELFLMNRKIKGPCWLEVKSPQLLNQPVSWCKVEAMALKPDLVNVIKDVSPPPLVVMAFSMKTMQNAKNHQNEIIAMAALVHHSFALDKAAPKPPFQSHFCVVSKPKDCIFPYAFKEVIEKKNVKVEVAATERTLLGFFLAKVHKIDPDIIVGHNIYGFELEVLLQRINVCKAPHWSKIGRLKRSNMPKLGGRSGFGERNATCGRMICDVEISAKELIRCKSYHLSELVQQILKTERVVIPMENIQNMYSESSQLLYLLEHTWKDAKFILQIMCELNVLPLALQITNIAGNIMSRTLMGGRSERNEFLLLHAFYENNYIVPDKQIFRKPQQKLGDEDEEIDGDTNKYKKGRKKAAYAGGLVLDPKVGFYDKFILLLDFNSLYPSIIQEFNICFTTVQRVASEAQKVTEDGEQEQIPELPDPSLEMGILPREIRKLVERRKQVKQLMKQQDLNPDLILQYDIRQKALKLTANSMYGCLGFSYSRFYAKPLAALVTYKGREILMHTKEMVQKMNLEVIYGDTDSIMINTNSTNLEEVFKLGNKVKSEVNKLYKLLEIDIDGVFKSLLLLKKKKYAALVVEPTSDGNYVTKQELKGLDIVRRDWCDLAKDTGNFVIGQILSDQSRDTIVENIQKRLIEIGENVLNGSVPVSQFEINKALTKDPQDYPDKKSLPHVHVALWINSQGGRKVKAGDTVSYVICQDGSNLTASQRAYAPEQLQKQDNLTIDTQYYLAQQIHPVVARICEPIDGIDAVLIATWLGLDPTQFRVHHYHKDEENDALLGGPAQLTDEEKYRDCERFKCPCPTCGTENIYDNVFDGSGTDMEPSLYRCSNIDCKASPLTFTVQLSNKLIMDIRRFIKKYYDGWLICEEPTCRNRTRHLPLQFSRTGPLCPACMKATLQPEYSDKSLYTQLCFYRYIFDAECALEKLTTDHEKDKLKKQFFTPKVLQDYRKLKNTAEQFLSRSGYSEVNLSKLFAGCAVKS", "assay": "Cellular DNA polymerase α assay", "format": "biochemical"}, "HIV-1 RT M184V": {"system": "HIV-1 RT M184V", "assay": "Mutant HIV-1 RT assay M184V", "format": "biochemical", "conditions": "Poly rI.dC [^3H]dCTP"}, "HIV-1 RT M184I": {"system": "HIV-1 RT M184I", "assay": "Mutant HIV-1 RT assay M184I", "format": "biochemical", "conditions": "Poly rI.dC [^3H]dCTP"}, "HIV-1 RT E138K": {"system": "HIV-1 RT E138K", "assay": "Mutant HIV-1 RT assay E138K", "format": "biochemical"}, "HIV-1 RT F61A": {"system": "HIV-1 RT F61A", "assay": "Mutant HIV-1 RT assay F61A", "format": "biochemical"}, "HIV-1 RT K70E": {"system": "HIV-1 RT K70E", "assay": "Mutant HIV-1 RT assay K70E", "format": "biochemical"}, "HIV-1 RT Q151M": {"system": "HIV-1 RT Q151M", "assay": "Mutant HIV-1 RT assay Q151M", "format": "biochemical"}, "HIV-1 RT M184I + E138K": {"system": "HIV-1 RT M184I + E138K", "assay": "Mutant HIV-1 RT assay M184I + E138K", "format": "biochemical"}, "HIV-1 RT V75I": {"system": "HIV-1 RT V75I", "assay": "Mutant HIV-1 RT assay V75I", "format": "biochemical", "conditions": "Poly rA.dT [^3H]dTTP"}, "HCMV DNA polymerase": {"target": "HCMV DNA polymerase (Human cytomegalovirus, UniProt P08546)", "sequence (P08546 whole entry)": "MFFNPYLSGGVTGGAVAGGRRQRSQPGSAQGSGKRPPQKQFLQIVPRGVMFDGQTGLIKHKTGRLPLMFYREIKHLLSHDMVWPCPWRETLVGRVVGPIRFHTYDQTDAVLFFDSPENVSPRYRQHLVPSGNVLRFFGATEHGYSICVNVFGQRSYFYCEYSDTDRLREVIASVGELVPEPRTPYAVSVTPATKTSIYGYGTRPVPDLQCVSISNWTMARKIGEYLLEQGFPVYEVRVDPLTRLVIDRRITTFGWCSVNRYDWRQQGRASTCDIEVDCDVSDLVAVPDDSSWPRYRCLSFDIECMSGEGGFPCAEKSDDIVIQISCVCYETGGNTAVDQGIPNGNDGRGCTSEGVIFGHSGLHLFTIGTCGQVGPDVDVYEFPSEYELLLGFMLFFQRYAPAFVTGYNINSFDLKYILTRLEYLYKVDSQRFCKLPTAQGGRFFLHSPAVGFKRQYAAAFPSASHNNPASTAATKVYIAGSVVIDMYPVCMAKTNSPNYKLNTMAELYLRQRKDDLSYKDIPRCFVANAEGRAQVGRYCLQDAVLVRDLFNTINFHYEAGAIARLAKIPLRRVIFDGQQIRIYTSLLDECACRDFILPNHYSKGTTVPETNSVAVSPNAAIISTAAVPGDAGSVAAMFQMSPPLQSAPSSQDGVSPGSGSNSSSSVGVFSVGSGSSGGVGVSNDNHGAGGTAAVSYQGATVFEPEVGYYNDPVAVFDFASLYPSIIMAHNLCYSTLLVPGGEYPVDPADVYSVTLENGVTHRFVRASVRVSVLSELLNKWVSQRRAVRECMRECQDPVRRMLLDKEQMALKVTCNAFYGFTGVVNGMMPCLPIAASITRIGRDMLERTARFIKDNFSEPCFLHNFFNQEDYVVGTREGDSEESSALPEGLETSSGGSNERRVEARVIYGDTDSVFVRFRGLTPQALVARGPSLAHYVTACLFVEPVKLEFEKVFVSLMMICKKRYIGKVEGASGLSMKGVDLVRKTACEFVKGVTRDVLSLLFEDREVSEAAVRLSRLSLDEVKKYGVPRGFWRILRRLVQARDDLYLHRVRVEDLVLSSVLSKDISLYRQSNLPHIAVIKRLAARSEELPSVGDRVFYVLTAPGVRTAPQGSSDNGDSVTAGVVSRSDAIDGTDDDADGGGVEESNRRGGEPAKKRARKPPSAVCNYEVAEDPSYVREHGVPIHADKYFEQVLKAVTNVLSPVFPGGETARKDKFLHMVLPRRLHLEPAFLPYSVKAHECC", "assay": "HCMV DNA polymerase enzyme assay", "format": "biochemical", "conditions": "calf thymus DNA"}, "HIV-1 RT K70R": {"system": "HIV-1 RT K70R", "assay": "Mutant HIV-1 RT assay K70R", "format": "biochemical", "conditions": "Poly rA.dT [^3H]dTTP"}, "HIV-1 RT M184V + E138K": {"system": "HIV-1 RT M184V + E138K", "assay": "Mutant HIV-1 RT assay M184V + E138K", "format": "biochemical", "conditions": "Poly rI.dC [^3H]dCTP"}, "HIV-1 RT": {"target": "HIV-1 RT (Human immunodeficiency virus type 1 group M subtype B, UniProt P04585)", "assay": "HIV-1 RT assay with homopolymeric template/primers", "format": "biochemical"}, "HIV-1 RT K70Q": {"system": "HIV-1 RT K70Q", "assay": "Mutant HIV-1 RT assay K70Q", "format": "biochemical", "conditions": "Poly rI.dC [^3H]dCTP"}}, "note": "Read-outs that look alike come from different tables or passages of the source.", "data": [{"smiles": "Cn1c2ccccc2c2c1cc(C#N)c(=O)n2-c1ccc([N+](=O)[O-])cc1", "note": "[INDOPY]", "values": [{"measurement": "Fold-resistance compared to wild-type", "setting": "HIV-1 RT L100I", "value": 3.9, "unit": "fold"}, {"measurement": "Fold-resistance compared to wild-type", "setting": "HIV-1 RT V106A; Poly rA.dT [^3H]dTTP", "value": 1.0, "unit": "fold"}, {"measurement": "Fold-resistance compared to wild-type", "setting": "HIV-1 RT V106A; Poly rI.dC [^3H]dCTP", "value": 0.4, "unit": "fold"}, {"measurement": "Fold-resistance compared to wild-type", "setting": "HIV-1 RT Y181C; Poly rA.dT [^3H]dTTP", "value": 1.3, "unit": "fold"}, {"measurement": "Fold-resistance compared to wild-type", "setting": "HIV-1 RT Y181C; Poly rI.dC [^3H]dCTP", "value": "≥ 6.7", "unit": "fold"}, {"measurement": "IC50", "setting": "[1]; read-out: IC50 β DNA pol, calf thymus DNA, [^3H]dGTP", "value": "> 100", "unit": "µM"}, {"measurement": "Fold-resistance compared to wild-type", "setting": "HIV-1 RT M184V + Y115F", "value": "≥ 6.7", "unit": "fold"}, {"measurement": "Fold-resistance compared to wild-type", "setting": "HIV-1 RT K65R; Poly rA.dT [^3H]dTTP", "value": 1.0, "unit": "fold"}, {"measurement": "Fold-resistance compared to wild-type", "setting": "HIV-1 RT K65R; Poly rI.dC [^3H]dCTP", "value": 1.3, "unit": "fold"}, {"measurement": "IC50", "setting": "HSV-1 DNA polymerase; read-out: IC50 HSV-1 DNA pol, [^3H]dGTP", "value": "> 100", "unit": "µM"}, {"measurement": "IC50", "setting": "HSV-1 DNA polymerase; read-out: IC50 HSV-1 DNA pol, [^3H]dTTP", "value": "> 100", "unit": "µM"}, {"measurement": "IC50", "setting": "[2]; read-out: IC50 α DNA pol, calf thymus DNA, [^3H]dGTP", "value": "> 100", "unit": "µM"}, {"measurement": "Fold-resistance compared to wild-type", "setting": "HIV-1 RT M184V", "value": "> 6.7", "unit": "fold"}, {"measurement": "Fold-resistance compared to wild-type", "setting": "HIV-1 RT M184I", "value": "≥ 6.7", "unit": "fold"}, {"measurement": "Fold-resistance compared to wild-type", "setting": "HIV-1 RT E138K; Poly rA.dT [^3H]dTTP", "value": 0.7, "unit": "fold"}, {"measurement": "Fold-resistance compared to wild-type", "setting": "HIV-1 RT E138K; Poly rI.dC [^3H]dCTP", "value": 1.0, "unit": "fold"}, {"measurement": "Fold-resistance compared to wild-type", "setting": "HIV-1 RT F61A; Poly rA.dT [^3H]dTTP", "value": 2.2, "unit": "fold"}, {"measurement": "Fold-resistance compared to wild-type", "setting": "HIV-1 RT F61A; Poly rI.dC [^3H]dCTP", "value": 1.9, "unit": "fold"}, {"measurement": "Fold-resistance compared to wild-type", "setting": "HIV-1 RT K103N; Poly rA.dT [^3H]dTTP", "value": 0.6, "unit": "fold"}, {"measurement": "Fold-resistance compared to wild-type", "setting": "HIV-1 RT K103N; Poly rI.dC [^3H]dCTP", "value": 1.1, "unit": "fold"}, {"measurement": "Fold-resistance compared to wild-type", "setting": "HIV-1 RT K70E; Poly rA.dT [^3H]dTTP", "value": 1.5, "unit": "fold"}, {"measurement": "Fold-resistance compared to wild-type", "setting": "HIV-1 RT K70E; Poly rI.dC [^3H]dCTP", "value": 0.6, "unit": "fold"}, {"measurement": "Fold-resistance compared to wild-type", "setting": "HIV-1 RT Q151M; Poly rA.dT [^3H]dTTP", "value": 1.6, "unit": "fold"}, {"measurement": "Fold-resistance compared to wild-type", "setting": "HIV-1 RT Q151M; Poly rI.dC [^3H]dCTP", "value": 0.2, "unit": "fold"}, {"measurement": "Fold-resistance compared to wild-type", "setting": "HIV-1 RT M184I + E138K; Poly rA.dT [^3H]dTTP", "value": 1.1, "unit": "fold"}, {"measurement": "Fold-resistance compared to wild-type", "setting": "HIV-1 RT M184I + E138K; Poly rI.dC [^3H]dCTP", "value": 0.6, "unit": "fold"}, {"measurement": "Fold-resistance compared to wild-type", "setting": "HIV-1 RT V75I", "value": 1.0, "unit": "fold"}, {"measurement": "IC50", "setting": "HCMV DNA polymerase; read-out: IC50 HCMV DNA pol, [^3H]dGTP", "value": "> 100", "unit": "µM"}, {"measurement": "IC50", "setting": "HCMV DNA polymerase; read-out: IC50 HCMV DNA pol, [^3H]dTTP", "value": "> 100", "unit": "µM"}, {"measurement": "Fold-resistance compared to wild-type", "setting": "HIV-1 RT K70R", "value": 0.6, "unit": "fold"}, {"measurement": "Fold-resistance compared to wild-type", "setting": "HIV-1 RT M184V + E138K", "value": 1.0, "unit": "fold"}, {"measurement": "IC50", "setting": "HIV-1 RT; read-out: IC50 HIV-1 RT, poly rA.dT, [^3H]dTTP", "value": "0.26 ± 0.07", "unit": "µM"}, {"measurement": "IC50", "setting": "HIV-1 RT; read-out: IC50 HIV-1 RT, poly rC.dG, [^3H]dGTP", "value": "> 200", "unit": "µM"}, {"measurement": "Fold-resistance compared to wild-type", "setting": "HIV-1 RT K70Q", "value": 0.7, "unit": "fold"}]}, {"smiles": "Nc1nc2c(ncn2[C@H]2CC[C@@H](COP(=O)(O)OP(=O)(O)OP(=O)(O)O)O2)c(=O)[nH]1", "note": "[ddGTP, 2′,3′-dideoxyguanosine-5′-triphosphate]", "values": [{"measurement": "IC50", "setting": "[1]", "value": "2.2 ± 1.8", "unit": "µM"}, {"measurement": "IC50", "setting": "HSV-1 DNA polymerase; IC50 HSV-1 DNA pol, [^3H]dGTP", "value": "4.5 ± 1.2", "unit": "µM"}, {"measurement": "IC50", "setting": "HSV-1 DNA polymerase; IC50 HSV-1 DNA pol, [^3H]dTTP", "value": "> 100", "unit": "µM"}, {"measurement": "IC50", "setting": "[2]", "value": "73 ± 8", "unit": "µM"}, {"measurement": "IC50", "setting": "HCMV DNA polymerase; IC50 HCMV DNA pol, [^3H]dGTP", "value": "48 ± 15", "unit": "µM"}, {"measurement": "IC50", "setting": "HCMV DNA polymerase; IC50 HCMV DNA pol, [^3H]dTTP", "value": "> 100", "unit": "µM"}, {"measurement": "IC50", "setting": "HIV-1 RT; IC50 HIV-1 RT, poly rA.dT, [^3H]dTTP", "value": "> 100", "unit": "µM"}, {"measurement": "IC50", "setting": "HIV-1 RT; IC50 HIV-1 RT, poly rC.dG, [^3H]dGTP", "value": "0.41 ± 0.02", "unit": "µM"}]}]}
